In the kinase profiling compilation of Christmann-Franck et al. (2016):

Experiments:
Test in all cases: radiometric filter-binding kinase assay, Kinase HotSpot
Settings in all cases: compound 0.5 µM; ATP 10 µM
TSSK2 (human) = TSSK2 (human) (UniProt Q96PF2)
SYK (human) = SYK (human) (UniProt P43405)
WNK2 (human) = WNK2 (human) (UniProt Q9Y3S1)
PLK3 (human) = PLK3 (human) (UniProt Q9H4B4)
ERBB4 (human) = ERBB4 (human) (UniProt Q15303)
MST4 (human) = MST4 (human) (UniProt Q9P289)
MAP3K7 TAB1 (human) = MAP3K7 TAB1 (human) (UniProt O43318+Q15750)
RPS6KA5 KD2 (human) = RPS6KA5 KD2 (human) (UniProt O75582)
RPS6KA5 KD2 (human), sequence (O75582 whole entry, looked up): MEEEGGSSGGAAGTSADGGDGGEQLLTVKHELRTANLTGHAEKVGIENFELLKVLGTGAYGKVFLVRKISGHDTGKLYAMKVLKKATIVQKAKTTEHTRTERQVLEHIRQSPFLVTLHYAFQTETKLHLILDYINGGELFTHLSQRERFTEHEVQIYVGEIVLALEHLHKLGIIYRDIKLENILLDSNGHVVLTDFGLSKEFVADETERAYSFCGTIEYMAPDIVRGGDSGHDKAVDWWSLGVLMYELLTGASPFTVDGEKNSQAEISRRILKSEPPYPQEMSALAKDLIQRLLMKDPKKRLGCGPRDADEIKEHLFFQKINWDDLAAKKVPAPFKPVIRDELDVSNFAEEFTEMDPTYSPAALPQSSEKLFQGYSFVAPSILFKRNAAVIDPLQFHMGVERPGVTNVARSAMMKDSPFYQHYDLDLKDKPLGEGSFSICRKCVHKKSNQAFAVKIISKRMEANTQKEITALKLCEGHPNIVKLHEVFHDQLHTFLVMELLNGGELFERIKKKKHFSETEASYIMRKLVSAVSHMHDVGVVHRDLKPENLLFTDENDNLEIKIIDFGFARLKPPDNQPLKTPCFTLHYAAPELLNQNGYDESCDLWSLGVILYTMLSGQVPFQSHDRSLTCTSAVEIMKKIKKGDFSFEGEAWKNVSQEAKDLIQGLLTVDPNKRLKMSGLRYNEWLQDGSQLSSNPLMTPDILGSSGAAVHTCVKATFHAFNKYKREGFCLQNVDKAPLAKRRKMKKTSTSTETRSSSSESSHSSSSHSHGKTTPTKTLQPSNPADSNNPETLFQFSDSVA

AURKC (human) = AURKC (human) (UniProt Q9UQB9)
AURKC (human), sequence (Q9UQB9 whole entry, looked up): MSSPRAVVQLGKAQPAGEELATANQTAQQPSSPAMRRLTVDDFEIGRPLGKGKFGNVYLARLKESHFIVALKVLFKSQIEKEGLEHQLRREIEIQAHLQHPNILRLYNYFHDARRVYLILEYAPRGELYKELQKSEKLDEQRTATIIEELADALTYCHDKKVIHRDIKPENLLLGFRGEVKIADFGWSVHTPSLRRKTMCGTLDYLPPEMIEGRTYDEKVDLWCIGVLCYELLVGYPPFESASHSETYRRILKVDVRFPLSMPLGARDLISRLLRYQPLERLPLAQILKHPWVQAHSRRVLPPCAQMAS

FGFR1 (human) = FGFR1 (human) (UniProt P11362)
AKT2 (human) = AKT2 (human) (UniProt P31751)
GRK7 (human) = GRK7 (human) (UniProt Q8WTQ7)
TTK (human) = TTK (human) (UniProt P33981)
PRKCB2 (human) = PRKCB2 (human) (UniProt P05771)
CSNK1E (human) = CSNK1E (human) (UniProt P49674)
CDK6 CCND1 (human) = CDK6 CCND1 (human) (UniProt Q00534+P24385)
RPS6KA4 KD2 (human) = RPS6KA4 KD2 (human) (UniProt O75676)
CDK4 CCND1 (human) = CDK4 CCND1 (human) (UniProt P24385+P11802)
FER (human) = FER (human) (UniProt P16591)
WNK3 (human) = WNK3 (human) (UniProt Q9BYP7)
NLK (human) = NLK (human) (UniProt Q9UBE8)
DAPK2 (human) = DAPK2 (human) (UniProt Q9UIK4)
DAPK2 (human), sequence (Q9UIK4 whole entry, looked up): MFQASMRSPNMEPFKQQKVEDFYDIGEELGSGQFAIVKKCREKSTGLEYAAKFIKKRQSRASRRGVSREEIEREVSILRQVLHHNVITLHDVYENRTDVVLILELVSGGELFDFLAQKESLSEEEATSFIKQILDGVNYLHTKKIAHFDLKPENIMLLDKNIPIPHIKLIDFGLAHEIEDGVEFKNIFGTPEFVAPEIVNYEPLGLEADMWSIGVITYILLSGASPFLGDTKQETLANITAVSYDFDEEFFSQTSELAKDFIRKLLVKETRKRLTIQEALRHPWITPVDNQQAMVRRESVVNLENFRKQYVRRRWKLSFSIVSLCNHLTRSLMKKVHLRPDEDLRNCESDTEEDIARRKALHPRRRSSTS

LRRK2 (human) = LRRK2 (human) (UniProt Q5S007)
LIMK1 (human) = LIMK1 (human) (UniProt P53667)
LIMK1 (human), sequence (P53667 whole entry, looked up): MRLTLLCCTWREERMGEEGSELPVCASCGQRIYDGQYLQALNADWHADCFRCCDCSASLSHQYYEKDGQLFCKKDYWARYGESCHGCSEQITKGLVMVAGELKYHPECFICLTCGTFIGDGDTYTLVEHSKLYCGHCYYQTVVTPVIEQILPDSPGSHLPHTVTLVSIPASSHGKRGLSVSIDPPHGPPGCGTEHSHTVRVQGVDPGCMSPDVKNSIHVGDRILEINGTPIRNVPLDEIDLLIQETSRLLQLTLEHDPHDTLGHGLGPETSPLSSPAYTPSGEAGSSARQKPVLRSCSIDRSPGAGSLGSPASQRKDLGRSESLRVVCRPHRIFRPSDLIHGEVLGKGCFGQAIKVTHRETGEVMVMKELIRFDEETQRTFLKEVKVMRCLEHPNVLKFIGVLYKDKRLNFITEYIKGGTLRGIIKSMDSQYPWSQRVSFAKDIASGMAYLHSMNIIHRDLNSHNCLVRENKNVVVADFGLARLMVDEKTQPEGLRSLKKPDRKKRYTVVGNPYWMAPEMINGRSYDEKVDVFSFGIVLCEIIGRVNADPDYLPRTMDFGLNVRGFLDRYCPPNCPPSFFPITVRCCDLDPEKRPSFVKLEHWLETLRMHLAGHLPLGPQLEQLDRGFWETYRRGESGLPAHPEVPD

MAP4K2 (human) = MAP4K2 (human) (UniProt Q12851)
MAPK12 (human) = MAPK12 (human) (UniProt P53778)
PKN2 (human) = PKN2 (human) (UniProt Q16513)
PKN2 (human), sequence (Q16513 whole entry, looked up): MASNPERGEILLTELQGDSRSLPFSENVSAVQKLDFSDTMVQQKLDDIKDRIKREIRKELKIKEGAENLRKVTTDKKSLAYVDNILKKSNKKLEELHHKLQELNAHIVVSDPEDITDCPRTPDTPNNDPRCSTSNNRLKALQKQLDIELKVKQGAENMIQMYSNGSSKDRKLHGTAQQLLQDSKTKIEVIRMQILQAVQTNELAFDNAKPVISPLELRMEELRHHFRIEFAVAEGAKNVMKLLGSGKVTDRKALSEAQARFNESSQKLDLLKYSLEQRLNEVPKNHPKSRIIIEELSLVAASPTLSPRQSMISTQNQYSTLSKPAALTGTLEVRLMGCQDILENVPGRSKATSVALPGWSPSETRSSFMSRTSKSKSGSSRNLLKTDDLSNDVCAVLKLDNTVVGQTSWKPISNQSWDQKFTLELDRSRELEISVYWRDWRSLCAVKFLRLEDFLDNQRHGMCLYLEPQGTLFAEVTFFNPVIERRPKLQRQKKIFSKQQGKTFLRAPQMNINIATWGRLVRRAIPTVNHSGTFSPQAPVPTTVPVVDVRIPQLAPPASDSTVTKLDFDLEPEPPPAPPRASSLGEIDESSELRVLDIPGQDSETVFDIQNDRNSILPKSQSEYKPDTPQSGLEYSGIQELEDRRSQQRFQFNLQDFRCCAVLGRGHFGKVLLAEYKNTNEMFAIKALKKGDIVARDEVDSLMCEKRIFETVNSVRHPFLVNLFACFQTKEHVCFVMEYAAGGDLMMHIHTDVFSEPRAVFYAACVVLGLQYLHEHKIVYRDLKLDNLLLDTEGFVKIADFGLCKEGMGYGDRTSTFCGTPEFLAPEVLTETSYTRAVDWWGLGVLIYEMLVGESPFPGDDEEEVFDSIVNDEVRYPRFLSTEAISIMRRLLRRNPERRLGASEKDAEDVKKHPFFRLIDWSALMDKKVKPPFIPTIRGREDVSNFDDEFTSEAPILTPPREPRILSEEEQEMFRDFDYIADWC

MAPK13 (human) = MAPK13 (human) (UniProt O15264)
CDK4 CCND3 (human) = CDK4 CCND3 (human) (UniProt P30281+P11802)
CDC42BPB (human) = CDC42BPB (human) (UniProt Q9Y5S2)
PDGFRB (human) = PDGFRB (human) (UniProt P09619)
SRC (human) = SRC (human) (UniProt P12931)
SRC (human), sequence (P12931 whole entry, looked up): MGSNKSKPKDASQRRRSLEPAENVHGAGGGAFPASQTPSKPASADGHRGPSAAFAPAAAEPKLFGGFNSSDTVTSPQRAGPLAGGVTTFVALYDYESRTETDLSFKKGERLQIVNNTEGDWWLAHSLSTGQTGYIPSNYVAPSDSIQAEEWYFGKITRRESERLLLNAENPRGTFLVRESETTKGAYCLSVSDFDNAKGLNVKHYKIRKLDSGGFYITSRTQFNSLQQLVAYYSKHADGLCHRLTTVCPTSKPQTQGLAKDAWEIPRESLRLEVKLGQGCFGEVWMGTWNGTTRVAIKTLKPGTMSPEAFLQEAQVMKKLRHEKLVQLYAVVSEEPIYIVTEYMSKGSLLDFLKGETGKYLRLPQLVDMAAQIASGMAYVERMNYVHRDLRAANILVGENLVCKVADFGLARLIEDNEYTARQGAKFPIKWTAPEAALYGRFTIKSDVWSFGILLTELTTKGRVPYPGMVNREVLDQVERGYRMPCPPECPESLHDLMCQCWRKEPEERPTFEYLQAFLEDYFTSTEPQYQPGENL

PRKCZ (human) = PRKCZ (human) (UniProt Q05513)
TYRO3 (human) = TYRO3 (human) (UniProt Q06418)
MAPK8 (human) = MAPK8 (human) (UniProt P45983)
ACVR1 (human) = ACVR1 (human) (UniProt Q04771)
EPHA4 (human) = EPHA4 (human) (UniProt P54764)
CLK3 (human) = CLK3 (human) (UniProt P49761)
PIM2 (human) = PIM2 (human) (UniProt Q9P1W9)
MAPKAPK3 (human) = MAPKAPK3 (human) (UniProt Q16644)
MAPKAPK3 (human), sequence (Q16644 whole entry, looked up): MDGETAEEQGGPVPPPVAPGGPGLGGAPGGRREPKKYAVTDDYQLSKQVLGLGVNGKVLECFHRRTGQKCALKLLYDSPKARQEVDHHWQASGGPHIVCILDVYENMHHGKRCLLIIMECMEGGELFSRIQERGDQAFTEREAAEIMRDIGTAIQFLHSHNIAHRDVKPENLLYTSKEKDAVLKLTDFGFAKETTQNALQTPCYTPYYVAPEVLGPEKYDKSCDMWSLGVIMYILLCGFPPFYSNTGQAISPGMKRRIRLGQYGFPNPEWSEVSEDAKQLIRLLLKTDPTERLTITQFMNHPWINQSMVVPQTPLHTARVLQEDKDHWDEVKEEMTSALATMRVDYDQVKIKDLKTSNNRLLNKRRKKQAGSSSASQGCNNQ

DDR2 (human) = DDR2 (human) (UniProt Q16832)
FLT1 (human) = FLT1 (human) (UniProt P17948)

TSSK2 (human), sequence (Q96PF2 whole entry, looked up): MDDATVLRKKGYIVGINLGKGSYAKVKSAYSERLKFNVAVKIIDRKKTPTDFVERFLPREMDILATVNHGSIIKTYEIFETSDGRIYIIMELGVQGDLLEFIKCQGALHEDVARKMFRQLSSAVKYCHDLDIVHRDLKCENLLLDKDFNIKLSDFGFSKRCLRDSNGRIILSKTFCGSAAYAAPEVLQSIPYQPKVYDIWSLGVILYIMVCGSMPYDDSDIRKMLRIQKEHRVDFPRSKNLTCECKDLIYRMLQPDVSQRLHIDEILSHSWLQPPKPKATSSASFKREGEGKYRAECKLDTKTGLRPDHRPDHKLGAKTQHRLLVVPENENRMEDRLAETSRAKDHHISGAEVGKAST
MST4 (human), sequence (Q9P289 whole entry, looked up): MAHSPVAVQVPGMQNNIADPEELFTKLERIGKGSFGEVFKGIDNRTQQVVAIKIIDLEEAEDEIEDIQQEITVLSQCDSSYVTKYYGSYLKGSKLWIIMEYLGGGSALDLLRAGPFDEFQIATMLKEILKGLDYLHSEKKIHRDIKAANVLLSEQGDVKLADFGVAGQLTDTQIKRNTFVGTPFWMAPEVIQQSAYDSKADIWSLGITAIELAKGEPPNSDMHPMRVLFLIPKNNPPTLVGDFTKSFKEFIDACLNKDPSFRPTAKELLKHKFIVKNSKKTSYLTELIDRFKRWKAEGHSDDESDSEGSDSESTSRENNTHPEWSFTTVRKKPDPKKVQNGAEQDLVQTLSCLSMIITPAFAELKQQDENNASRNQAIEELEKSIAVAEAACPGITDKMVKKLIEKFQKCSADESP

## O=C(O)c1ccc2c3c1cccc3c(=O)n1c3ccccc3nc21
TSSK2 (human)
  residual activity: 106%
SYK (human)
  residual activity: 96%
WNK2 (human)
  residual activity: 106%
PLK3 (human)
  residual activity: 93.9%
ERBB4 (human)
  residual activity: 105%
MST4 (human)
  residual activity: 97.8%
MAP3K7 TAB1 (human)
  residual activity: 74.4%
RPS6KA5 KD2 (human)
  residual activity: 104%
AURKC (human)
  residual activity: 88%
FGFR1 (human)
  residual activity: 84.7%
AKT2 (human)
  residual activity: 101%
GRK7 (human)
  residual activity: 102%
TTK (human)
  residual activity: 81%
PRKCB2 (human)
  residual activity: 97%
CSNK1E (human)
  residual activity: 96%
CDK6 CCND1 (human)
  residual activity: 90.6%
RPS6KA4 KD2 (human)
  residual activity: 110%
CDK4 CCND1 (human)
  residual activity: 106%
FER (human)
  residual activity: 96.5%
WNK3 (human)
  residual activity: 95.8%
NLK (human)
  residual activity: 96.1%
DAPK2 (human)
  residual activity: 91.9%
LRRK2 (human)
  residual activity: 70.1%
LIMK1 (human)
  residual activity: 92.7%
MAP4K2 (human)
  residual activity: 38%
MAPK12 (human)
  residual activity: 103%
PKN2 (human)
  residual activity: 97.9%
MAPK13 (human)
  residual activity: 104%
CDK4 CCND3 (human)
  residual activity: 102%
CDC42BPB (human)
  residual activity: 109%
PDGFRB (human)
  residual activity: 107%
SRC (human)
  residual activity: 96.3%
PRKCZ (human)
  residual activity: 94.3%
TYRO3 (human)
  residual activity: 102%
MAPK8 (human)
  residual activity: 98%
ACVR1 (human)
  residual activity: 91.1%
EPHA4 (human)
  residual activity: 103%
CLK3 (human)
  residual activity: 95.4%
PIM2 (human)
  residual activity: 41.7%
MAPKAPK3 (human)
  residual activity: 103%
DDR2 (human)
  residual activity: 96.8%
FLT1 (human)
  residual activity: 86.5%

## O=c1c2ccccc2[nH]c(=S)n1CCN1CCC(=C(c2ccc(F)cc2)c2ccc(F)cc2)CC1
TSSK2 (human)
  residual activity: 101%
SYK (human)
  residual activity: 93.2%
WNK2 (human)
  residual activity: 96.3%
PLK3 (human)
  residual activity: 96.2%
ERBB4 (human)
  residual activity: 87.4%
MST4 (human)
  residual activity: 91.6%
MAP3K7 TAB1 (human)
  residual activity: 103%
RPS6KA5 KD2 (human)
  residual activity: 105%
AURKC (human)
  residual activity: 99.4%
FGFR1 (human)
  residual activity: 105%
AKT2 (human)
  residual activity: 101%
GRK7 (human)
  residual activity: 111%
TTK (human)
  residual activity: 96.3%
PRKCB2 (human)
  residual activity: 98.2%
CSNK1E (human)
  residual activity: 100%
CDK6 CCND1 (human)
  residual activity: 98.7%
RPS6KA4 KD2 (human)
  residual activity: 103%
CDK4 CCND1 (human)
  residual activity: 99.6%
FER (human)
  residual activity: 95.2%
WNK3 (human)
  residual activity: 107%
NLK (human)
  residual activity: 99.5%
DAPK2 (human)
  residual activity: 104%
LRRK2 (human)
  residual activity: 93.9%
LIMK1 (human)
  residual activity: 98.4%
MAP4K2 (human)
  residual activity: 112%
MAPK12 (human)
  residual activity: 99%
PKN2 (human)
  residual activity: 97.2%
MAPK13 (human)
  residual activity: 106%
CDK4 CCND3 (human)
  residual activity: 99%
CDC42BPB (human)
  residual activity: 106%
PDGFRB (human)
  residual activity: 112%
SRC (human)
  residual activity: 103%
PRKCZ (human)
  residual activity: 102%
TYRO3 (human)
  residual activity: 91.1%
MAPK8 (human)
  residual activity: 98.9%
ACVR1 (human)
  residual activity: 107%
EPHA4 (human)
  residual activity: 99.4%
CLK3 (human)
  residual activity: 101%
PIM2 (human)
  residual activity: 129%
MAPKAPK3 (human)
  residual activity: 109%
DDR2 (human)
  residual activity: 97.6%
FLT1 (human)
  residual activity: 95.2%

## FC(F)(F)c1ccc(/C=C/c2nc(COc3ccc(CCCCn4ccnn4)cc3)co2)cc1
TSSK2 (human)
  residual activity: 100%
SYK (human)
  residual activity: 97.4%
WNK2 (human)
  residual activity: 95.9%
PLK3 (human)
  residual activity: 107%
ERBB4 (human)
  residual activity: 99.6%
MST4 (human)
  residual activity: 98%
MAP3K7 TAB1 (human)
  residual activity: 88.7%
RPS6KA5 KD2 (human)
  residual activity: 111%
AURKC (human)
  residual activity: 97.1%
FGFR1 (human)
  residual activity: 101%
AKT2 (human)
  residual activity: 99.9%
GRK7 (human)
  residual activity: 97.8%
TTK (human)
  residual activity: 111%
PRKCB2 (human)
  residual activity: 93.1%
CSNK1E (human)
  residual activity: 95.5%
CDK6 CCND1 (human)
  residual activity: 95.4%
RPS6KA4 KD2 (human)
  residual activity: 105%
CDK4 CCND1 (human)
  residual activity: 96.8%
FER (human)
  residual activity: 102%
WNK3 (human)
  residual activity: 98.5%
NLK (human)
  residual activity: 101%
DAPK2 (human)
  residual activity: 107%
LRRK2 (human)
  residual activity: 94.8%
LIMK1 (human)
  residual activity: 99.2%
MAP4K2 (human)
  residual activity: 105%
MAPK12 (human)
  residual activity: 98.3%
PKN2 (human)
  residual activity: 107%
MAPK13 (human)
  residual activity: 99.1%
CDK4 CCND3 (human)
  residual activity: 119%
CDC42BPB (human)
  residual activity: 100%
PDGFRB (human)
  residual activity: 98.1%
SRC (human)
  residual activity: 92.5%
PRKCZ (human)
  residual activity: 101%
TYRO3 (human)
  residual activity: 103%
MAPK8 (human)
  residual activity: 105%
ACVR1 (human)
  residual activity: 101%
EPHA4 (human)
  residual activity: 98.8%
CLK3 (human)
  residual activity: 92.2%
PIM2 (human)
  residual activity: 116%
MAPKAPK3 (human)
  residual activity: 98.9%
DDR2 (human)
  residual activity: 101%
FLT1 (human)
  residual activity: 95.5%
